Assay results from paper PMC7268545, “Development of a QPatch-Automated Electrophysiology Assay for Identifying TMEM16A Small-Molecule Inhibitors” (Assay and Drug Development Technologies, 2020).

Columns and labels:
abc isoform of TMEM16A = target: T1, abc isoform of TMEM16A (Homo sapiens, UniProt Q5XXA6, DEL476-501); assay: QPatch-48 assay on HEK293T cell line stably expressing the abc isoform; type: cell-based; conditions: 30 μM
T1 construct: expressed in transfected cells; host or cells: HEK293T
T1 sequence (Q5XXA6 with tags, fused parts or gaps isoform Q5XXA6-5 DEL539-564): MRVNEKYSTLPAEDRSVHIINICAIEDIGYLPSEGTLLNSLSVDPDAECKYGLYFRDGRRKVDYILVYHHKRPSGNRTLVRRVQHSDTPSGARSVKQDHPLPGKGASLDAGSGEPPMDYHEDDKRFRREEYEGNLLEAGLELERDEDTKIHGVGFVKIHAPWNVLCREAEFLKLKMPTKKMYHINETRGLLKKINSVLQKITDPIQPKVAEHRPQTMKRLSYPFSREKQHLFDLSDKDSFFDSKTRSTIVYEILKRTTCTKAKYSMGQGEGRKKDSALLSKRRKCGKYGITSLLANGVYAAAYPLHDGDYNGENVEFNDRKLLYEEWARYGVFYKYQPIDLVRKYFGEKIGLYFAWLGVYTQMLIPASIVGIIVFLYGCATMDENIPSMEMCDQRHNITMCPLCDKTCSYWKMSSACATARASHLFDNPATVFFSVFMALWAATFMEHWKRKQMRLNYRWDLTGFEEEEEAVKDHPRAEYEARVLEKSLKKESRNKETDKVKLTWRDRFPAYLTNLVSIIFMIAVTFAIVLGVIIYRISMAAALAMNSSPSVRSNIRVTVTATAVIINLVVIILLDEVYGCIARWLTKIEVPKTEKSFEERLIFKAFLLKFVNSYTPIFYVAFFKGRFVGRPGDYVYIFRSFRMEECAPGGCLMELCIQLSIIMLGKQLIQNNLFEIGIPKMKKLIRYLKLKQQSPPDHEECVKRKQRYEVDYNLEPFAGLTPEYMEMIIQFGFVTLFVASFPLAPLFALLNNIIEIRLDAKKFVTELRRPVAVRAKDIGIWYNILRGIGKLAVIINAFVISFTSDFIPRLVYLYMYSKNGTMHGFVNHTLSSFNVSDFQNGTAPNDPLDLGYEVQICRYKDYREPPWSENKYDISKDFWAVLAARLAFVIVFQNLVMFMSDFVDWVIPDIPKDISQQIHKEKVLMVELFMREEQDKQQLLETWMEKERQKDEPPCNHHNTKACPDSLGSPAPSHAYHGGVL
Method: Using the QPatch-48, we have developed a robust assay for the assessment of TMEM16A small-molecule inhibitors. Many optimization steps were performed to determine the optimal cell culture conditions, internal calcium level, holding potential and voltage protocol, and maximum duration of the assay. It was necessary to control for the culture conditions of the cells and strictly adhere to the cell preparation procedure to obtain high-quality seals. In addition, while the external solution can be used throughout the day, the internal solution should be replaced every 2 h to ensure that the ATP is fresh. Best practices also require solutions to be made weekly and for the osmolarity and pH to be measured accurately. Having met these conditions, the assay results in large currents, averaging a peak current of 6 nA, while maintaining outward rectification that is characteristic of the TMEM16A channel. The benchmark TMEM16A inhibitors that were tested during the validation efforts generated reproducible and expected IC50 values. […] Another HEK293T cell line that stably expressed the abc isoform of TMEM16A also formed high-quality seals and produced large currents.

TMEM16A = target: T2, TMEM16A (Homo sapiens, UniProt Q5XXA6); assay: QPatch-48 assay on HEK293T-derived cell line with doxycycline-induced expression; type: cell-based; conditions: 30 μM; expression induced with 10 ng/mL doxycycline
T2 construct: expressed in transfected cells; host or cells: HEK293T-derived, doxycycline-inducible
T2 sequence (Q5XXA6 1-986): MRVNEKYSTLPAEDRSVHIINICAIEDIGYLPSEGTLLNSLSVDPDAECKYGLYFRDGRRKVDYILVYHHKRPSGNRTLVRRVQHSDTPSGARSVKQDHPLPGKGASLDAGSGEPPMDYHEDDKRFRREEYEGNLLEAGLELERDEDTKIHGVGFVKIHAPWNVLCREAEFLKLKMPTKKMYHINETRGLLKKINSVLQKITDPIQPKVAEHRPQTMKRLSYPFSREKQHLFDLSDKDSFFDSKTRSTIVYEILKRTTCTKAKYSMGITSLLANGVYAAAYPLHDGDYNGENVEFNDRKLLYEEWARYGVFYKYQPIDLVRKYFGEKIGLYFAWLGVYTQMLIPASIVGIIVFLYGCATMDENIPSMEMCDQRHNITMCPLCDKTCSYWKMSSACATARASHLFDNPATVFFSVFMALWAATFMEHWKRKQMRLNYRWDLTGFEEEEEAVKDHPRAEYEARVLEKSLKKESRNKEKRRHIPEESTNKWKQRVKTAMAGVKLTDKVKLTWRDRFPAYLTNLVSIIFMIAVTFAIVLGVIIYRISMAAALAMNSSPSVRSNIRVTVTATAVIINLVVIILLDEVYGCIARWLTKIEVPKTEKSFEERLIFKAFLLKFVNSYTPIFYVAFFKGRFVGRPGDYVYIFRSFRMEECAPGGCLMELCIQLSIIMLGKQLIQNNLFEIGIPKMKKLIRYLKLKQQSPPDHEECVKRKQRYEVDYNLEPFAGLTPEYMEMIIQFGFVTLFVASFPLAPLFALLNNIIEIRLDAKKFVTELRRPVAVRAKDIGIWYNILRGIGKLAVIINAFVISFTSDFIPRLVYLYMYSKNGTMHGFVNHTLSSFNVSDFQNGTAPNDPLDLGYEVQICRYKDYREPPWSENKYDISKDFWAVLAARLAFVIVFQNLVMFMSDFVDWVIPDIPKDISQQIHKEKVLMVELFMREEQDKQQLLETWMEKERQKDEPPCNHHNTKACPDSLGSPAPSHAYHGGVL
Method: In addition, another cell line that was HEK293T-derived and induced expression of TMEM16A on addition of 10 ng/mL of doxycycline also performed well on the assay. […] These two other cell lines were run on the machine using the predefined parameters that were optimized with the original cells, including the cell preparation protocol. Therefore, it seems that this assay is easily transferable to any cell line expressing TMEM16A.

block of currents (abc isoform of TMEM16A): fully blocked
block of currents (TMEM16A): fully blocked
Structure (SMILES): CCc1oc2ccccc2c1C(=O)c1cc(Br)c(O)c(Br)c1 [Benzbromarone]
